Data from article PMC5069765, “OsdR of Streptomyces coelicolor and the Dormancy Regulator DevR of Mycobacterium tuberculosis Control Overlapping Regulons” (mSystems, 2016).

Assays:
OsdR (SCO0204) = biological target: T1, OsdR (SCO0204) (Streptomyces coelicolor, UniProt Q9RI42); experiment: in vitro phosphorylation by AcP, read out by EMSA (DNA binding versus nonphosphorylated OsdR); assay type: biochemical; conditions: phosphor donor; covalent phosphorylation; indirect read-out
T1 construct: His6-tagged, from plasmid pET0204 in E. coli BL21(DE3), Ni-NTA purified
T1 sequence (Q9RI42 1-233): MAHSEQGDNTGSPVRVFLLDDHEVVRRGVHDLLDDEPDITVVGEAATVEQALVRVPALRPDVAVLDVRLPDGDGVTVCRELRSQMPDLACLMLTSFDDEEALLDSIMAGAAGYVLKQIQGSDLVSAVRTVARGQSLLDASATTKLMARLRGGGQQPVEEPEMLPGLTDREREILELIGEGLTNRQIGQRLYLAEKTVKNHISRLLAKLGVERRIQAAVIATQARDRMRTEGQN

[1] = biological target: T2, OsdR~P (phosphorylated with acetyl phosphate) (Streptomyces coelicolor) (UniProt Q9RI42); experiment: EMSA; conditions: AcP-phosphorylated; EMSA with 32P-labeled probes, 20 fmol DNA (50-mers), uM OsdR; AcP phosphorylation; buffer, pH, temperature not given (cited method)
T2 sequence: T1 sequence (Q9RI42 1-233)

| Molecule | in vitro phosphorylation by AcP, read out by EMSA (DNA binding versus nonphospho) (OsdR (SCO0204)) | binding signal (fold lower affinity than other targets) [1] |
| --- | --- | --- |
| CC(=O)OP(=O)(O)O [acetyl phosphate] | OsdR~P was obtained after AcP phosphorylation in vitro | – |
| SCO2637 promoter | – | 2 |
